Laboratory results: PubChem BioAssay AID328 (DTP/NCI, 2004)
“And” between values parts separate entries of the source, which are not always exact repeats. Identical values can stand only once. Inconclusive results and toxic doses are left out.

Test system: BDF1 mice, P388 leukemia ip, median survival T/C
Test: NCI In Vivo Anticancer Drug Screen. Data for tumor model P388 Leukemia (intraperitoneal) in B6D2F1 (BDF1) mice
Conditions: endpoint: median survival time, higher = longer survival
In short: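 Reported as T/C, where T is the survival measurement in dosed animals and C the same measurement in vehicle controls.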

[1] = dose: 50.0 mg/kg/injection, schedule: Q01DX009 (ip), vehicle: Klucel (hydroxypropylcellulose) (HPC)
[2] = dose: 100.0 mg/kg/injection, schedule: Q01DX009 (ip), vehicle: Klucel (hydroxypropylcellulose) (HPC)
[3] = dose: 100.0 mg/kg/injection, schedule: Q04DX003 (ip), vehicle: Klucel (hydroxypropylcellulose) (HPC)
[4] = dose: 200.0 mg/kg/injection, schedule: Q01DX009 (ip), vehicle: Klucel (hydroxypropylcellulose) (HPC)

COc1ccc(C(=O)CC(c2ccc(OC)c(OC)c2)c2c(O)c3ccccc3oc2=O)cc1OC (stereo not drawn)
T/C (dose: 12.5 mg/kg/injection, schedule: Q01DX009 (ip), vehicle: saline): 101 % of control
T/C (dose: 25.0 mg/kg/injection, schedule: Q01DX009 (ip), vehicle: saline): 111 % of control
T/C (dose: 50.0 mg/kg/injection, schedule: Q01DX009 (ip), vehicle: saline): 101 % of control
T/C (dose: 100.0 mg/kg/injection, schedule: Q01DX009 (ip), vehicle: saline): 109 % of control
T/C (dose: 200.0 mg/kg/injection, schedule: Q01DX009 (ip), vehicle: saline): 93 % of control

CC[C@H](CC[C@@H](C)[C@H]1CC[C@H]2[C@@H]3CC=C4C[C@@H](OC(=O)CN5CCNCC5)CC[C@]4(C)[C@H]3CC[C@]12C)C(C)C
T/C [1]: 104 % of control
T/C [2]: 104 % of control

CCC(C)C1NC(=O)C(NC(=O)c2c3nc4c(C(=O)NC5C(=O)NC(C(C)CC)C(=O)N6CCCC6C(=O)N(C)CC(=O)N(C)C(C(C)C)C(=O)OC5C)cc([N+](=O)[O-])c(C)c4oc-3c(C)c(=O)c2N)C(C)OC(=O)C(C(C)C)N(C)C(=O)CN(C)C(=O)C2CCCN2C1=O (stereo not drawn)
T/C (dose: 0.15 mg/kg/injection, schedule: Q04DX003 (ip), vehicle: saline + alcohol): 197 % of control
T/C (dose: 0.3 mg/kg/injection, schedule: Q04DX003 (ip), vehicle: saline + alcohol): 157 % of control and 216 % of control
T/C (dose: 0.6 mg/kg/injection, schedule: Q04DX003 (ip), vehicle: saline + alcohol): 229 % of control and 221 % of control
T/C (dose: 1.2 mg/kg/injection, schedule: Q04DX003 (ip), vehicle: saline + alcohol): 270 % of control and 177 % of control
T/C (dose: 2.4 mg/kg/injection, schedule: Q04DX003 (ip), vehicle: saline + alcohol): 116 % of control
T/C (dose: 50.0 micrograms/kg/injection, schedule: Q01DX009 (ip), vehicle: saline + alcohol): 173 % of control
T/C (dose: 100.0 micrograms/kg/injection, schedule: Q01DX009 (ip), vehicle: saline + alcohol): 197 % of control
T/C (dose: 200.0 micrograms/kg/injection, schedule: Q01DX009 (ip), vehicle: saline + alcohol): 312 % of control
T/C (dose: 400.0 micrograms/kg/injection, schedule: Q01DX009 (ip), vehicle: saline + alcohol): 118 % of control

COCCOCCN1CCN(CCCN2c3ccccc3Sc3ccc(C(F)(F)F)cc32)CC1
T/C (dose: 12.5 mg/kg/injection, schedule: Q04DX003 (ip), vehicle: saline): 112 % of control
T/C (dose: 25.0 mg/kg/injection, schedule: Q04DX003 (ip), vehicle: saline): 108 % of control

CCCCCCCCCCNc1ccc(NCCCCCCCCCC)cc1
T/C [2]: 100 % of control
T/C [3]: 120 % of control
T/C (dose: 400.0 mg/kg/injection, schedule: Q01DX009 (ip), vehicle: Klucel (hydroxypropylcellulose) (HPC)): 100 % of control

OCc1cnc[nH]1
T/C (dose: 6.25 mg/kg/injection, schedule: Q01DX009 (ip), vehicle: Klucel (hydroxypropylcellulose) (HPC)): 96 % of control
T/C (dose: 12.5 mg/kg/injection, schedule: Q01DX009 (ip), vehicle: Klucel (hydroxypropylcellulose) (HPC)): 91 % of control
T/C (dose: 25.0 mg/kg/injection, schedule: Q01DX009 (ip), vehicle: Klucel (hydroxypropylcellulose) (HPC)): 90 % of control
T/C [1]: 99 % of control

CCOc1ccc(/C=N/NS(=O)(=O)c2ccc(C)cc2)cc1
T/C [3]: 100 % of control
T/C [4]: 92 % of control
T/C (dose: 200.0 mg/kg/injection, schedule: Q04DX003 (ip), vehicle: Klucel (hydroxypropylcellulose) (HPC)): 100 % of control
T/C (dose: 400.0 mg/kg/injection, schedule: Q04DX003 (ip), vehicle: Klucel (hydroxypropylcellulose) (HPC)): 100 % of control

CC(=O)OC1CC2c3ccccc3C1c1cccc[n+]12 (stereo not drawn)
T/C (dose: 2.34 mg/kg/injection, schedule: Q01DX009 (ip), vehicle: Klucel (hydroxypropylcellulose) (HPC)): 87 % of control
T/C (dose: 4.68 mg/kg/injection, schedule: Q01DX009 (ip), vehicle: Klucel (hydroxypropylcellulose) (HPC)): 91 % of control
T/C (dose: 9.37 mg/kg/injection, schedule: Q01DX009 (ip), vehicle: Klucel (hydroxypropylcellulose) (HPC)): 91 % of control
T/C (dose: 18.75 mg/kg/injection, schedule: Q01DX009 (ip), vehicle: Klucel (hydroxypropylcellulose) (HPC)): 87 % of control

NNc1c(C(N)=O)c2c(N)ncnc2n1C1OC(CO)C(O)C1O (stereo not drawn)
T/C (dose: 50.0 mg/kg/injection, schedule: Q04DX003 (ip), vehicle: water): 171 % of control
T/C (dose: 100.0 mg/kg/injection, schedule: Q04DX003 (ip), vehicle: water): 166 % of control
T/C (dose: 200.0 mg/kg/injection, schedule: Q04DX003 (ip), vehicle: water): 199 % of control

NNC(=S)N/N=C/c1ccc([N+](=O)[O-])s1
T/C [2]: 110 % of control
T/C [4]: 112 % of control
